Assays:
mouse DGAT1 = biological target: T1, mouse DGAT1 (Mus musculus, UniProt Q9Z2A7); assay: DGAT1 inhibitory effect test (microsome fraction, [14C]-oleoyl-CoA, triglyceride radioactivity by TLC); format: biochemical; settings: 0.5 h; concentration of the test compound 0.1 μg/ml; mouse DGAT1 microsomes, 23° C., 30 minutes; read-out: Inhibitory ratio
T1 construct: made in house; host or cells: insect cells (High Five, Sf9, Sf21, etc.), baculovirus expression system (Invitrogen)
T1 sequence (Q9Z2A7 1-498): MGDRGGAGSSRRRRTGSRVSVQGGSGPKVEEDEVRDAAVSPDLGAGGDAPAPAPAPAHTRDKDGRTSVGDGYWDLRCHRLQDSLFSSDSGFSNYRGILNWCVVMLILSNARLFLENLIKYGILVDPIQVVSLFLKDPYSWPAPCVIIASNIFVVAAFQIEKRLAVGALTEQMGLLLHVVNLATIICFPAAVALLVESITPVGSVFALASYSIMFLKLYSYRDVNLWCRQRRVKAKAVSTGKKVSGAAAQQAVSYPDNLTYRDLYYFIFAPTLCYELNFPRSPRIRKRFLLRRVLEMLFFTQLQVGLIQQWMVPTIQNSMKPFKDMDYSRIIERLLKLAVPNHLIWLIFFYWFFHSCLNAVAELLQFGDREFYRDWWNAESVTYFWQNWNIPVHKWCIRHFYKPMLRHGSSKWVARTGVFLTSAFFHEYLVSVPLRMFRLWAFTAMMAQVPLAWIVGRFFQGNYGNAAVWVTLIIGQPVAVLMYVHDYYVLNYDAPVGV
Summary of the method: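 Baculovirus-expressed mouse DGAT1 insect-cell microsomes (10 μg) were incubated 30 min at 23 °C, pH 8.0, with 0.5 mM 1,2-dioleoyl-sn-glycerol, 30 μM [14C]-oleoyl-CoA and 0.5% Triton X-100. [14C]-triglyceride was quantified after heptane extraction and TLC. Percent inhibition was taken against vehicle control, with 0-min background subtracted.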

Compound | melting point [°C] | inhibition at 0.1 µg/mL (mouse DGAT1) [%]
COc1ccccc1NC(=O)Nc1ccc(N2CCN(C(=O)Nc3ccc(OCCO)cc3Cl)CC2)cc1 [Example 251, 4-{4-[3-(2-methoxy-phenyl)-ureido]-phenyl}-piperazine-1-carboxylic acid [2-chloro-4-(2-hydroxy-ethoxy)-phenyl]-amide] | 134 to 136 | ≥ 50
COc1ccc(C)cc1NC(=O)Nc1ccc(N2CCN(C(=O)Nc3ccc(OCCO)cc3Cl)C(C)C2)cc1 (stereo not drawn) [Example 252, 4-{4-[3-(2-methoxy-5-methyl-phenyl)-ureido]-phenyl}-2-methyl-piperazine-1-carboxylic acid [2-chloro-4-(2-hydroxy-ethoxy)-phenyl]-amide] | 129 to 131 | ≥ 50
COc1ccc(C)cc1NC(=O)Nc1ccc(N2CCN(C(=O)Nc3ccc(OCCO)cc3Cl)CC2)c(F)c1 [Example 253, 4-{2-fluoro-4-[3-(2-methoxy-5-methyl-phenyl)-ureido]-phenyl}-piperazine-1-carboxylic acid [2-chloro-4-(2-hydroxy-ethoxy)-phenyl]-amide] | 118 to 120 | ≥ 50
O=C(Nc1ccc(N2CCN(C(=O)Nc3ccc(OCCO)cc3Cl)CC2)cc1)Nc1ccccc1F [Example 255, 4-{4-[3-(2-fluoro-phenyl)-ureido]-phenyl}-piperazine-1-carboxylic acid [2-chloro-4-(2-hydroxy-ethoxy)-phenyl]-amide] | 213 to 217 | ≥ 50
COc1ccc(C)cc1NC(=O)Nc1ccc(C2=CCN(C(=O)Nc3ccc(OCCO)cc3Cl)CC2)cc1 [Example 256, 4-{4-[3-(2-methoxy-5-methyl-phenyl)-ureido]-phenyl}-3,6-dihydro-2H-pyridine-1-carboxylic acid [2-chloro-4-(2-hydroxy-ethoxy)-phenyl]-amide] | 117 to 120 | ≥ 50
COc1ccc(C)cc1NC(=O)Nc1ccc(C2CCN(C(=O)Nc3ccc(OCCO)cc3Cl)CC2)cc1 [Example 257, 4-{4-[3-(2-methoxy-5-methyl-phenyl)-ureido]-phenyl}-piperidine-1-carboxylic acid [2-chloro-4-(2-hydroxy-ethoxy)-phenyl]-amide] | 134 to 137 | ≥ 50
COc1ccccc1NC(=O)Nc1ccc(C2=CCN(C(=O)Nc3ccc(OCCO)cc3Cl)CC2)cc1 [Example 258, 4-{4-[3-(2-methoxy-phenyl)-ureido]-phenyl}-3,6-dihydro-2H-pyridine-1-carboxylic acid [2-chloro-4-(2-hydroxy-ethoxy)-phenyl]-amide] | 120 to 125 | ≥ 50
COc1cc(NC(=O)Nc2ccc(C3=CCN(C(=O)Nc4ccc(OCCO)cc4Cl)CC3)cc2)cc(OC)c1 [Example 259, 4-{4-[3-(3,5-dimethoxy-phenyl)-ureido]-phenyl}-3,6-dihydro-2H-pyridine-1-carboxylic acid [2-chloro-4-(2-hydroxy-ethoxy)-phenyl]-amide] | 135 to 139 | ≥ 50
O=C(Nc1ccc(C2=CCN(C(=O)Nc3ccc(OCCO)cc3Cl)CC2)cc1)Nc1ccccc1F [Example 260, 4-{4-[3-(2-fluoro-phenyl)-ureido]-phenyl}-3,6-dihydro-2H-pyridine-1-carboxylic acid [2-chloro-4-(2-hydroxy-ethoxy)-phenyl]-amide] | 173 to 178 | ≥ 50
COc1ccccc1NC(=O)Nc1ccc(C2CCN(C(=O)Nc3ccc(OCCO)cc3Cl)CC2)cc1 [Example 261, 4-{4-[3-(2-methoxy-phenyl)-ureido]-phenyl}-piperidine-1-carboxylic acid [2-chloro-4-(2-hydroxy-ethoxy)-phenyl]-amide] | 166 to 168 | ≥ 50
COc1cc(NC(=O)Nc2ccc(C3CCN(C(=O)Nc4ccc(OCCO)cc4Cl)CC3)cc2)cc(OC)c1 [Example 262, 4-{4-[3-(3,5-dimethoxy-phenyl)-ureido]-phenyl}-piperidine-1-carboxylic acid [2-chloro-4-(2-hydroxy-ethoxy)-phenyl]-amide] | 101 to 105 | ≥ 50
O=C(Nc1ccc(C2CCN(C(=O)Nc3ccc(OCCO)cc3Cl)CC2)cc1)Nc1ccccc1F [Example 263, 4-{4-[3-(2-fluoro-phenyl)-ureido]-phenyl}-piperidine-1-carboxylic acid [2-chloro-4-(2-hydroxy-ethoxy)-phenyl]-amide] | 166 to 171 | ≥ 50
CCOc1cccc(NC(=O)Nc2ccc(C3CCN(C(=O)Nc4ccc(OCCO)cc4Cl)CC3)cc2)c1 [Example 264, 4-{4-[3-(3-ethoxy-phenyl)-ureido]-phenyl}-piperidine-1-carboxylic acid [2-chloro-4-(2-hydroxy-ethoxy)-phenyl]-amide] | 129 to 134 | ≥ 50
COc1ccccc1NC(=O)Nc1ccc2c(c1)CCN(C(=O)Nc1ccc(OCCO)cc1Cl)C2 [Example 265, 6-[3-(2-methoxy-phenyl)-ureido]-3,4-dihydro-1 H-isoquinoline-2-carboxylic acid [2-chloro-4-(2-hydroxy-ethoxy)-phenyl]-amide] | 130 to 135 | ≥ 50
COc1cc(NC(=O)Nc2ccc3c(c2)CCN(C(=O)Nc2ccc(OCCO)cc2Cl)C3)cc(OC)c1 [Example 266, 6-[3-(3,5-dimethoxy-phenyl)-ureido]-3,4-dihydro-1H-isoquinoline-2-carboxylic acid [2-chloro-4-(2-hydroxy-ethoxy)-phenyl]-amide] | 105 to 110 | ≥ 50
O=C(Nc1ccc2c(c1)CCN(C(=O)Nc1ccc(OCCO)cc1Cl)C2)Nc1ccccc1F [Example 267, 6-[3-(2-fluoro-phenyl)-ureido]-3,4-dihydro-1H-isoquinoline-2-carboxylic acid [2-chloro-4-(2-hydroxy-ethoxy)-phenyl]-amide] | 183 to 186 | ≥ 50
COc1ccc(C)cc1NC(=O)Nc1ccc(N2CCN(C(=O)Nc3ccc(OCCO)cc3Cl)CC2)nc1 [Example 268, 4-{5-[3-(2-methoxy-5-methyl-phenyl)-ureido]-pyridin-2-yl}-piperazine-1-carboxylic acid [2-chloro-4-(2-hydroxy-ethoxy)-phenyl]-amide] | 196 to 197 | ≥ 50
COc1ccccc1NC(=O)Nc1ccc(N2CCN(C(=O)Nc3ccc(OCCO)cc3Cl)CC2)c(Cl)c1 [Example 269, 4-{2-chloro-4-[3-(2-methoxy-phenyl)-ureido]-phenyl}-piperazine-1-carboxylic acid [2-chloro-4-(2-hydroxy-ethoxy)-phenyl]-amide] | 173 to 175 | ≥ 50
COc1cccnc1NC(=O)Nc1ccc(N2CCN(C(=O)Nc3ccc(OCCO)cc3Cl)CC2)cc1 [Example 270, 4-{4-[3-(3-methoxy-pyridin-2-yl)-ureido]-phenyl}-piperazine-1-carboxylic acid [2-chloro-4-(2-hydroxy-ethoxy)-phenyl]-amide] | 215 to 216 | ≥ 50
Cc1nc(NC(=O)Nc2ccc(N3CCN(C(=O)Nc4ccc(OCCO)cc4Cl)CC3)nc2)sc1C [Example 271, 4-{5-[3-(4,5-dimethyl-thiazol-2-yl)-ureido]-pyridin-2-yl}-piperazine-1-carboxylic acid [2-chloro-4-(2-hydroxy-ethoxy)-phenyl]-amide] | 184 to 185 | ≥ 50
Cc1nc(NC(=O)Nc2ccc(N3CCN(C(=O)Nc4ccc(OCCO)cc4Cl)CC3)cc2)sc1C [Example 272, 4-{4-[3-(4,5-dimethyl-thiazol-2-yl)-ureido]-phenyl}-piperazine-1-carboxylic acid [2-chloro-4-(2-hydroxy-ethoxy)-phenyl]-amide] | 186 to 187 | ≥ 50
COc1ccc(C)cc1NC(=O)Nc1ccc(C2=CCN(C(=O)Nc3cc(OCCO)ccc3Cl)CC2)cc1 [Example 273, 4-{4-[3-(2-methoxy-5-methyl-phenyl)-ureido]-phenyl}-3,6-dihydro-2H-pyridine-1-carboxylic acid [2-chloro-5-(2-hydroxy-ethoxy)-phenyl]-amide] | 139 to 142 | ≥ 50
COc1ccc(C)cc1NC(=O)Nc1ccc(C2CCN(C(=O)Nc3cc(OCCO)ccc3Cl)CC2)cc1 [Example 274, 4-{4-[3-(2-methoxy-5-methyl-phenyl)-ureido]-phenyl}-piperidine-1-carboxylic acid [2-chloro-5-(2-hydroxy-ethoxy)-phenyl]-amide] | 202 to 205 | ≥ 50
COc1ccc(C)cc1NC(=O)Nc1ccc(N2CCN(C(=O)Nc3ccc(OCC(O)CO)cc3C(F)(F)F)CC2)cc1 (stereo not drawn) [Example 275, 4-{4-[3-(2-methoxy-5-methyl-phenyl)-ureido]-phenyl}-piperazine-1-carboxylic acid [4-(2,3-dihydroxy-propoxy)-2-trifluoromethyl-phenyl]-amide] | 187 to 190 | ≥ 50

— US20070249620A1, “Urea Derivative” (priority 2004, published 2007)
